Reference: publication PMC8795738, “The Tarantula Venom Peptide Eo1a Binds to the Domain II S3-S4 Extracellular Loop of Voltage-Gated Sodium Channel NaV1.8 to Enhance Activation” (Frontiers in Pharmacology, 2022)
Where a SMILES comes first, the peptide text is derived from it. Bridges are numbered along the chain shown (N, C = ends).

Columns and labels:
KV2.1 = molecular target: T1, KV2.1 (Homo sapiens, UniProt Q14721); assay: KV2.1 currents, whole-cell patch-clamp; type: cell-based; conditions: Eo1a 10 μM, 5 min, HEK293, human KV2.1, n = 3
T1 construct: expressed in transfected cells; host or cells: HEK293 cells stably expressing β1/β2, transient transfection with Lipofectamine 2000
T1 sequence (Q14721 1-858): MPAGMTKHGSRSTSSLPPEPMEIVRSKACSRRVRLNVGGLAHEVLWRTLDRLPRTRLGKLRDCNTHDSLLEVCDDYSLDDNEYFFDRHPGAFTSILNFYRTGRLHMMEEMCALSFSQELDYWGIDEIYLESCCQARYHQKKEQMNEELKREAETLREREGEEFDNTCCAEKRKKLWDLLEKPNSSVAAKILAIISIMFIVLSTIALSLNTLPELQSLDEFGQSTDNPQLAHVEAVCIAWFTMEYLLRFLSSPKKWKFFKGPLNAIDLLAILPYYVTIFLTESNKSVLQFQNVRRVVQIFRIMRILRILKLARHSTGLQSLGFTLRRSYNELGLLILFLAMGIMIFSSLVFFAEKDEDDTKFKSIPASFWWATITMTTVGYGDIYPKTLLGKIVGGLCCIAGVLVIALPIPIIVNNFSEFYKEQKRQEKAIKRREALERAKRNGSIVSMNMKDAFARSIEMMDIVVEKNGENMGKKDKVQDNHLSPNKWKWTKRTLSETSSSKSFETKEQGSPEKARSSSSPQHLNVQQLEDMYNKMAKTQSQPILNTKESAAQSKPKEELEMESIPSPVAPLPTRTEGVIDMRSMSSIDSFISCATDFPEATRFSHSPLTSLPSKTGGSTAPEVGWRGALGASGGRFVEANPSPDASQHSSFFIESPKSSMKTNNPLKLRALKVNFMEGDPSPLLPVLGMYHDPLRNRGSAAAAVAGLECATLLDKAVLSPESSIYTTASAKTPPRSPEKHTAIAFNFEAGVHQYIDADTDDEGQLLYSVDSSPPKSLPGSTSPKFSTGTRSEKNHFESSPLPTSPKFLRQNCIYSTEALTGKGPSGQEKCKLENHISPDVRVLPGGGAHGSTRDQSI
Protocol: (§1) Human Embryonic Kidney (HEK) 293 cells stably expressing human NaV1.1 to NaV1.7/β1 (SB Drug Discovery, Glasgow, United Kingdom), Chinese Hamster Ovary (CHO) cells stably expressing human NaV1.8/β3 in a tetracycline-inducible system (ChanTest, Cleveland, OH, United States), and HEK293 cells stably expressing rat transient receptor potential vanilloid 1 (TRPV1) were cultured as previously described ([Yin et al., 2020]). Human KV2.1 and NaV1.7 mutants were transiently transfected into HEK293 cells stably expressing β1/β2 using Lipofectamine 2000 (Thermo Fisher Scientific, Scoresby, VIC, Australia) and used for patch-clamp experiments 48 h after transfection. Cells were grown in an incubator at 37°C with 5% CO2 and passaged every 3–4 d (at 70–80% confluency) using TrypLE Express (Thermo Fisher Scientific).
(§2) Automated whole-cell patch-clamp recordings were performed with a QPatch-16 automated electrophysiology platform (Sophion Bioscience, Ballerup, Denmark) using single-hole (QPlate 16 with a standard resistance of 2 ± 0.4 MΩ) or multi-hole (QPlate 16X with a standard resistance 0.2 ± 0.04 MΩ, NaV1.8 only) as previously described ([McMahon et al., 2020]).
(§3) The extracellular solution (ECS) consisted of (in mM) 145 NaCl (replaced with 70 choline chloride for NaV1.4, NaV1.5 and NaV1.7), 4 KCl, 2 CaCl2, 1 MgCl2, 10 HEPES, and 10 glucose, pH to 7.4 with NaOH (adjusted to 305 mOsm/L with sucrose). For NaV recordings the intracellular solution (ICS) consisted of (in mM) 140 CsF, 1 EGTA, 5 CsOH, 10 HEPES, and 10 NaCl, pH to 7.3 with CsOH (adjusted to 320 mOsm/L with sucrose). For KV2.1 recordings the ICS consisted of (in mM) 50 KCl, 60 KF, 10 EGTA, 10 HEPES, 10 NaCl pH to 7.3 with KOH (adjusted to 320 mOsm/L with sucrose). TTX (1 μM) was added to the ECS for NaV1.8 recordings to inhibit background endogenous TTX sensitive current in CHO cells.
KV2.1 currents were acquired using a holding potential of −80 mV and a 300 ms pulse to +50 mV every 20 s (0.05 Hz). Eo1a was incubated for 5 min and compared to buffer control.

[1] = tested on: NaV1.7 with DIV S3-S4 loop of NaV1.8; assay: Voltage-dependence of activation, NaV1.7/NaV1.8 chimera DIV S3-S4; type: cell-based, human; conditions: Eo1a 10 μM; NaV1.7 with NaV1.8 DIV S3-S4; HEK293 β1/β2, transient; mean ± SEM, n = 3–6 cells
Protocol: as §1
Wild-type (WT) hNaV1.7 cDNA (NM_002,977, a gift from Dr James Cox, University College London) was subjected to in vitro site-directed mutagenesis using the QuikChange™ XL mutagenesis kit (Agilent Technologies) following the manufacturer’s instructions. NaV1.7 mutants were generated by substituting the domain II (DII) S1-S2 loop, the DII S3-S4 loop, the domain IV (DIV) S1-S2 loop and the DIV S3-S4 loop in NaV1.7 with the corresponding regions of NaV1.8. The mutations were verified by sequencing at the Brisbane node of the Australian Genome Research Facility. […]

NaV1.6 = assay: I-V protocol, whole-cell patch-clamp, NaV1.6; type: cell-based, human; conditions: Eo1a 10 μM
Protocol: as §1, §2
as §3, with “TTX (1 μM) was added to the ECS for NaV1.8 recordings to inhibit background endogenous TTX sensitive current in CHO cells.” left out
The time constant of fast inactivation (τ) was computed by fitting the current decay traces with a single exponential function using QPatch Assay Software 5.6 (Sophion). The time to peak was calculated from pulse onset to peak inward current using QPatch Assay Software 5.6 (Sophion).

## CC[C@H](C)[C@@H]1NC(=O)[C@H](CCCNC(=N)N)NC(=O)[C@@H]2CSSC[C@@H]3NC(=O)CNC(=O)CNC(=O)[C@H](CC(C)C)NC(=O)[C@H](Cc4ccccc4)NC(=O)[C@H](Cc4c[nH]c5ccccc45)NC(=O)[C@H](CCCNC(=N)N)NC(=O)[C@@H](NC(=O)[C@@H](N)CC(=O)O)CSSC[C@H](NC(=O)[C@H](CSSC[C@@H](C(=O)N[C@@H](C)C(=O)N[C@@H](Cc4c[nH]c5ccccc45)C(=O)N[C@@H](CC(=O)O)C(=O)NCC(=O)N[C@H](C(=O)N[C@@H](Cc4ccccc4)C(N)=O)[C@@H](C)O)NC(=O)[C@H](Cc4ccc(O)cc4)NC(=O)[C@H](CCCCN)NC(=O)[C@H]([C@@H](C)CC)NC(=O)[C@H](Cc4ccc(O)cc4)NC(=O)CNC(=O)[C@H](CC(=O)O)NC1=O)NC(=O)[C@H](CC(=O)O)NC(=O)[C@H](CO)NC(=O)[C@H](CC(=O)O)NC(=O)[C@H](CCCCN)NC(=O)[C@H](CO)NC3=O)C(=O)N[C@@H](CCCCN)C(=O)N[C@@H](Cc1c[nH]cn1)C(=O)N[C@@H](CC(C)C)C(=O)N[C@@H](C)C(=O)N2 [Eo1a] (H-DCRWFLGGCSKDSDCCKHLACRIDGYIKYCAWDGTF-NH2; disulfide 2-16, 9-21, 15-30 (inferred); N-terminus assumed)
KV2.1; 300 ms pulse to +50 mV, buffer 5.1 ± 0.4 ms
  τactivation of KV2.1: 13.6 ± 2.7 ms
KV2.1; holding −80 mV, 300 ms pulse to +50 mV, buffer 6.25 ± 0.9 nA
  late current size of KV2.1, I250 ms: 6.34 ± 0.9 nA
KV2.1
  KV2.1 late current, inhibitory activity: no inhibitory activity
[1]
  ΔV1/2 activation: −6.7 ± 0.5 mV
NaV1.6; 5 min, control −22.7 ± 1.0 mV, *p < 0.05, mean ± SEM, n = 4–6
  V1/2 activation: −35.0 mV
NaV1.6; 5 min, control −56.3 ± 1.1 mV, mean ± SEM, n = 4–6
  V1/2 inactivation (steady-state fast inactivation): −56.2 ± 1.0
NaV1.6; test pulse −20 mV
  effect on fast inactivation: delayed fast-inactivation
